Results: publication PMC11357397, “Design, Synthesis, and Evaluation of Oleyl-WRH Peptides for siRNA Delivery” (Pharmaceuticals, 2024)

Experiments:
Assay in all cases: In vitro cytotoxicity of peptide/siRNA complexes (MTS)
Conditions in all cases: 35% v/v DMSO
SK-OV-3 cells = type: cell-based, human
Description: (§1) This study aimed to assess these complexes’ potential as a delivery system for siRNA-mediated gene silencing in cancer cells. Our initial experiments involved the use of the MDA-MB-231 (Figure 6A), MCF-7 (Figure 6B), SK-OV-3 (Figure 7A), and HEK-293 (Figure 7B) cell lines for cell culture and in vitro cytotoxicity studies. After 72 h of incubation, we used an MTS test to determine the cytotoxicity of the developed peptides complexed with scrambled siRNA. The peptide/siRNA complexes were applied to the cells at various concentrations and N/P ratios (from 10 to 100). […] This finding corroborates the results from our previous reports.
(§2) The cell lines selected for this study included MDA-MB-231 (ATCC No. HTB-26, triple-negative breast cancer cell line), MCF-7 (ATCC No. HTB-22, breast adenocarcinoma cells), HEK-293 (ATCC No. CRL-1573, normal kidney cells), and SK-OV-3 (ATCC No. HTB-77, human epithelial ovary adenocarcinoma cells). […]
(§3) The cytotoxicity of the synthesized oleyl-conjugated peptides complexed with scrambled siRNA was evaluated in vitro using the aforementioned cell lines. […]
(§4) For the assay, 10,000 cells per 0.1 mL were seeded into each well of a 96-well plate using a multichannel pipette and allowed to adhere for 24 h in a standard cell culture incubator. Cell health and confluency were assessed after the initial 24 h period. […]

MCF-7 cells = type: cell-based
Description: as §1, §2, §3, §4

MDA-MB-231 cells = type: cell-based
Description: as §1, §2, §3, §4

HEK-293 cells = type: cell-based
Description: as §1
The cell lines selected for this study included MDA-MB-231 (ATCC No. HTB-26, triple-negative breast cancer cell line), MCF-7 (ATCC No. HTB-22, breast adenocarcinoma cells), HEK-293 (ATCC No. CRL-1573, normal kidney cells), and SK-OV-3 (ATCC No. HTB-77, human epithelial ovary adenocarcinoma cells).
as §3, §4

Measured: cells to which the positive control was cytotoxic

C[S+](C)[O-] [DMSO]
over 70%: all assays above
